From ChEMBL document CHEMBL5058564, “EUbOPEN Chemogenomics Library 2 (Incucyte)” (2022)

What was measured:
Format in all cases: toxicity, cell-based
HEK-293T = test: Incucyte cell viability with HEK293T; settings: human, 10 µM, compound concentration 10 uM
U2OS = test: Incucyte cell viability with U2OS; settings: human, 10 µM, compound concentration 10 uM
Fibroblast = test: Incucyte cell viability with human fibroblast; settings: 10 µM, compound concentration 10 uM
[1] = 6 h, replicate number 1, timepoint 6 hours
[2] = 6 h, replicate number 2, timepoint 6 hours
[3] = 12 h, replicate number 1, timepoint 12 hours
[4] = 12 h, replicate number 2, timepoint 12 hours
[5] = 18 h, replicate number 1, timepoint 18 hours
[6] = 18 h, replicate number 2, timepoint 18 hours
[7] = 24 h, replicate number 1, timepoint 24 hours
[8] = 24 h, replicate number 2, timepoint 24 hours
[9] = 0 h, replicate number 1, timepoint 0 hours
[10] = 0 h, replicate number 2, timepoint 0 hours
Also: unitless GR value; below 1 slowed growth and below 0 cell loss.

SMILES	Growth Rate (HEK-293T; [1])	Growth Rate (HEK-293T; [2])	Growth Rate (HEK-293T; [3])	Growth Rate (HEK-293T; [4])	Growth Rate (HEK-293T; [5])	Growth Rate (HEK-293T; [6])	Growth Rate (HEK-293T; [7])	Growth Rate (HEK-293T; [8])	Growth Rate (U2OS; [1])	Growth Rate (U2OS; [2])	Growth Rate (U2OS; [4])	Growth Rate (U2OS; [5])	Growth Rate (U2OS; [6])	Growth Rate (U2OS; [7])	Growth Rate (U2OS; [8])	Growth Rate (Fibroblast; [1])	Growth Rate (Fibroblast; [3])	Growth Rate (Fibroblast; [4])	Growth Rate (Fibroblast; [5])	Growth Rate (Fibroblast; [7])	other results
COc1ncc2cc(C(=O)Nc3cc(C(=O)NCc4cccc(Cl)c4)ccc3Cl)c(=O)[nH]c2n1	0.48	0.93	0.55	0.83	0.64	0.9	0.66	0.93	0.36	0.28	0.69	0.51	0.67	0.75	0.69	-0.08	0.48	0.41	0.51	0.76	Growth Rate (Fibroblast; [9]): 0.34; Growth Rate (Fibroblast; [10]): 0.82; Growth Rate (Fibroblast; [2]): -0.3
Cc1cc(Cn2cnc3c2C[C@@H](C(=O)O)N(C(=O)C(c2ccccc2)c2ccccc2)C3)ccc1N(C)C	0.56	0.61	0.72	0.75	0.7	0.99	0.85								0.97	0.22			0.53	0.39	Growth Rate (U2OS; [10]): 0.34; Growth Rate (Fibroblast; [9]): 0.15; Growth Rate (Fibroblast; [6]): 0.97; Growth Rate (Fibroblast; [8]): 0.88
COc1ccc(C(=O)N2CCN(C(=O)/C=C/c3ccc(Br)cc3)CC2)cc1	0.09								-0.38	0.66	0.72	0.64	0.63	0.88	0.73	-0.51	0.15	0.95	0.44	0.08	Growth Rate (U2OS; [3]): 0.8; Growth Rate (Fibroblast; [10]): 0.76; Growth Rate (Fibroblast; [6]): 0.79
CC(C)n1cnc2c(Nc3cccc(Cl)c3)nc(N[C@H]3CCCC[C@@H]3N)nc21	-0.84	-0.89	-0.51	-0.69	-0.35	-0.48	-0.25	-0.39	-0.04	0.4	0.04	0.03	-0.02	0.06	0.05	0.31	0.73	0.36	0.33	0.41	Growth Rate (U2OS; [3]): -0.12; Growth Rate (Fibroblast; [2]): -0.31
CN1CCN(c2nc3cc(C(F)(F)F)ccc3n3cccc23)CC1.O=C(O)/C=C\C(=O)O.O=C(O)/C=C\C(=O)O	0.89	0.57		0.87		0.7	0.8									0.24	0.72		0.98		Growth Rate (U2OS; [10]): -1; Growth Rate (Fibroblast; [9]): 0.87
Cn1cc(-c2ccc3occ(-c4cccc(-c5ccncc5)c4)c3n2)cn1	-0.87	-0.61	-0.67	-0.44	-0.56	-0.33	-0.43	-0.32	-0.02	-0.14	-0.05	-0.03	0.09	-0.02	0.09	-0.96	-0.95	-0.62	-0.87	-0.84	Growth Rate (U2OS; [9]): -0.88; Growth Rate (U2OS; [3]): -0.03; Growth Rate (Fibroblast; [6]): -0.23; Growth Rate (Fibroblast; [8]): 0.02
CN[C@@H]1Cc2cccc3[nH]c(=O)n(c23)C1.O=C(O)/C=C\C(=O)O	0.74	0.88			0.9	0.98	0.79					0.71	0.85	0.89	0.98	-0.17	0.68		0.81	0.5	Growth Rate (U2OS; [9]): 0.11; Growth Rate (U2OS; [10]): -1; Growth Rate (Fibroblast; [2]): 0.8
NCCc1cn(S(=O)(=O)c2c(Cl)nc3sccn23)c2ccccc12.O=C(O)C(=O)O	-0.34		0.22	0.08	0.4	0.51	0.57	0.52	-0.18	0.34	0.36	0.72	0.45	0.87	0.57	-0.77	-0.66	-0.5	-0.67	-0.67	Growth Rate (U2OS; [3]): 0.52; Growth Rate (Fibroblast; [2]): -0.79; Growth Rate (Fibroblast; [6]): -0.42; Growth Rate (Fibroblast; [8]): -0.31
Cc1cccc(NC(=O)CN2CCC(c3ccccn3)CC2)c1.Cl.Cl	0.47	0.66	0.79	0.97		0.98										0.02	0.19		0.48	0.77	Growth Rate (U2OS; [10]): -1; Growth Rate (Fibroblast; [10]): 0.72
CC(C)n1cc(-c2ccc(N3CCN(C)CC3)c(NC(=O)c3ccc(-c4ccncc4)o3)c2)cn1	-0.29	-0.21	-0.21	-0.04	-0.16	0.34	0.11	0.64	-0.04			0.95				-0.14	0.05	0.57	-0.06	0.03	Growth Rate (U2OS; [9]): 0.32; Growth Rate (U2OS; [10]): -1; Growth Rate (U2OS; [3]): 0.36; Growth Rate (Fibroblast; [10]): 0.57; Growth Rate (Fibroblast; [2]): 0.39; Growth Rate (Fibroblast; [6]): 0.81; Growth Rate (Fibroblast; [8]): 0.94
N=C(N)NCCC[C@@H](NC(=O)C(c1ccccc1)c1ccccc1)C(=O)NCc1ccc(CNC(N)=O)cc1.O=C(O)C(F)(F)F.O=C(O)C(F)(F)F	1	0.41	0.8		0.83		0.98		0.1	0.61	0.93	0.59	0.96	0.82	0.83	0.44	0.58	0.67	0.41	0.52	Growth Rate (U2OS; [10]): 0.75; Growth Rate (U2OS; [3]): 0.58; Growth Rate (Fibroblast; [9]): -0.19; Growth Rate (Fibroblast; [2]): 0.45
Cc1nc2ccc(Oc3ccc(F)cc3)cc2c(=O)n1C[C@H]1CCCN(C(C)C)C1.Cl	0.01	0.52	-0.18	0.29	-0.23	0.13	-0.2	-0.05	-0.6	0.98	0.97		0.96			-0.24	-0.26	-0.42	-0.42	-0.38	Growth Rate (Fibroblast; [2]): -0.65; Growth Rate (Fibroblast; [6]): -0.21; Growth Rate (Fibroblast; [8]): -0.28
CN(C)CCN(Cc1ccc(-c2ccc(CNCCc3ccccc3)cc2)cc1)C(=O)CCC1CCCC1.Cl.Cl	-0.93	-0.92	-0.74	-0.78	-0.55	-0.67	-0.46	-0.59	-1	-0.96	-0.81	-0.92	-0.64	-0.86	-0.58	-1	-0.99		-0.96	-0.93	Growth Rate (U2OS; [3]): -0.99; Growth Rate (Fibroblast; [6]): -0.99; Growth Rate (Fibroblast; [8]): -0.98
